According to the NIST ThermoML archive (doi:10.1021/je050112b):
“And” between values parts separate entries of the source, which are not always exact repeats. Identical values can stand only once.

[I][Sm][I] [samarium diiodide]
Liquid
Details	vapor or sublimation pressure
1048 K	0.00013 kPa
1051 K	0.00016 kPa
1064 K	0.00021 kPa
1065 K	0.00019 kPa
1068 K	0.00024 kPa
1069 K	0.00024 kPa
1072 K	0.00021 kPa
1074 K	0.00027 kPa
1076 K	0.00027 kPa and 0.00024 kPa
1078 K	0.00029 kPa
1080 K	0.0004 kPa
1082 K	0.00032 kPa
1085 K	0.00035 kPa
1086 K	0.00035 kPa
1088 K	0.00048 kPa
1089 K	0.00035 kPa
1092 K	0.00043 kPa and 0.00035 kPa
1093 K	0.00043 kPa
1094 K	0.00043 kPa
1096 K	0.00048 kPa
1098 K	0.00045 kPa
1100 K	0.00045 kPa
1101 K	0.00053 kPa
1102 K	0.00075 kPa
1103 K	0.00056 kPa
1104 K	0.00059 kPa
1106 K	0.00056 kPa
1108 K	0.00064 kPa and 0.00051 kPa
1110 K	0.00061 kPa
1111 K	0.00064 kPa
1113 K	0.00064 kPa
1114 K	0.00077 kPa
1118 K	0.00069 kPa and 0.00075 kPa and 0.00064 kPa
1120 K	0.0008 kPa
1121 K	0.00117 kPa
1124 K	0.00093 kPa and 0.00096 kPa and 0.00085 kPa
1125 K	0.00085 kPa
1126 K	0.00091 kPa
1128 K	0.00139 kPa and 0.00085 kPa
1129 K	0.00107 kPa and 0.00096 kPa
1133 K	0.00123 kPa and 0.00104 kPa
1134 K	0.00107 kPa
1135 K	0.00115 kPa
1136 K	0.00134 kPa
1138 K	0.00112 kPa
1139 K	0.00123 kPa
1140 K	0.00176 kPa
1141 K	0.00128 kPa
1142 K	0.00155 kPa and 0.00128 kPa
1144 K	0.00144 kPa
1145 K	0.0016 kPa and 0.00166 kPa
1148 K	0.00144 kPa
1150 K	0.0016 kPa
1151 K	0.0016 kPa
1152 K	0.00198 kPa
1153 K	0.00182 kPa
1154 K	0.00203 kPa
1155 K	0.00214 kPa
1158 K	0.00198 kPa and 0.00192 kPa and 0.00187 kPa
1159 K	0.00262 kPa and 0.00203 kPa
1160 K	0.0023 kPa
1161 K	0.0024 kPa and 0.00219 kPa
1162 K	0.00208 kPa and 0.00203 kPa
1164 K	0.00262 kPa
1167 K	0.00246 kPa
1168 K	0.0024 kPa
1169 K	0.00278 kPa and 0.00288 kPa
1170 K	0.00272 kPa
1171 K	0.00347 kPa and 0.00251 kPa and 0.00246 kPa
1173 K	0.0031 kPa
1177 K	0.00331 kPa [middle of 4 runs]
1178 K	0.00326 kPa
1179 K	0.00288 kPa and 0.00358 kPa and 0.00294 kPa
1181 K	0.00368 kPa
1183 K	0.00449 kPa
1185 K	0.00363 kPa
1186 K	0.00368 kPa [middle of 5 runs]
1187 K	0.00401 kPa
1188 K	0.00427 kPa
1189 K	0.00336 kPa and 0.00331 kPa
1195 K	0.00443 kPa
1196 K	0.00507 kPa

[I][Sm]([I])[I] [samarium triiodide]
Crystal
Details	vapor or sublimation pressure
789 K	0.00017 kPa
797 K	0.00024 kPa
799 K	0.0002 kPa
801 K	0.0002 kPa
805 K	0.00034 kPa
807 K	0.00029 kPa
808 K	0.00025 kPa
814 K	0.00051 kPa
815 K	0.00034 kPa
819 K	0.00051 kPa
823 K	0.00071 kPa and 0.00047 kPa
824 K	0.00064 kPa
832 K	0.00067 kPa
833 K	0.00088 kPa and 0.00101 kPa
840 K	0.00111 kPa and 0.00098 kPa
843 K	0.00145 kPa
849 K	0.00148 kPa and 0.00135 kPa
852 K	0.00212 kPa
856 K	0.00189 kPa
857 K	0.00168 kPa
863 K	0.00236 kPa
867 K	0.00236 kPa
868 K	0.00276 kPa
876 K	0.00307 kPa
